# Experimental data as given in ChEMBL document CHEMBL1145176, “Somatostatin receptor 1 selective analogues: 2. N(alpha)-Methylated scan” (J Med Chem, 2005).
# Positions of bridges follow the written chain, without caps; N, C: chain ends. Non-standard residues stand in square brackets, D forms with d. Residues, ends and D or L forms follow the SMILES beside them. NMePhe(4-CH2NHiPr) = CN[C@@H](Cc1ccc(CNC(C)C)cc1)C(=O)O; Phe(4-CH2NHiPr) = CC(C)NCc1ccc(C[C@H](N)C(=O)O)cc1
# Legend:
# [1] = target: Somatostatin receptor type 5 (Homo sapiens, UniProt P35346); assay: Inhibition of [Leu8,D-Trp22,125I-Tyr25]SRIF-28 binding to human somatostatin receptor type 5
# Sequence of Somatostatin receptor type 5 (P35346 whole entry): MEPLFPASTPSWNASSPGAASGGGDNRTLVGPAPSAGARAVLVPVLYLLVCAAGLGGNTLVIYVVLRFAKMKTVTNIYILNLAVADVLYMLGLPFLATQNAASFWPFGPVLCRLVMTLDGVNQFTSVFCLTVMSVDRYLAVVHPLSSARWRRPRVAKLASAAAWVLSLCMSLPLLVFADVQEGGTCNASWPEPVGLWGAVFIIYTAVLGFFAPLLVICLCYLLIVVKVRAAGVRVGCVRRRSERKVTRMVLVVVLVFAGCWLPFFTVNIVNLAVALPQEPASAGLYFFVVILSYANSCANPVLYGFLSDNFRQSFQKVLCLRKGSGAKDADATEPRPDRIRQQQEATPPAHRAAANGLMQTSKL
# [2] = target: Somatostatin receptor type 4 (Homo sapiens, UniProt P31391); assay: Inhibition of [Leu8,D-Trp22,125I-Tyr25]SRIF-28 binding to human somatostatin receptor type 4
# Sequence of Somatostatin receptor type 4 (P31391 whole entry): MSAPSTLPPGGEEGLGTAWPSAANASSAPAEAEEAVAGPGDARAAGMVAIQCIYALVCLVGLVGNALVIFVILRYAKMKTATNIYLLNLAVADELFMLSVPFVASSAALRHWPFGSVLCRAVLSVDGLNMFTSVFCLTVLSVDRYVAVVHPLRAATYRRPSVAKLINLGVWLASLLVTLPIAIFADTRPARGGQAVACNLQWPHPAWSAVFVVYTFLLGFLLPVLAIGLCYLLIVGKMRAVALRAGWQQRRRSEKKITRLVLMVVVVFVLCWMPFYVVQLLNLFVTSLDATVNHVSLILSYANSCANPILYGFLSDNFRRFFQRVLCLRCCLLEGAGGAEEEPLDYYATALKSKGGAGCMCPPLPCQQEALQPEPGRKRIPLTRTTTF
# [3] = target: Somatostatin receptor type 2 (Homo sapiens, UniProt P30874); assay: Inhibition of [Leu8,D-Trp22,125I-Tyr25]SRIF-28 binding to human somatostatin receptor type 2
# Sequence of Somatostatin receptor type 2 (P30874 whole entry): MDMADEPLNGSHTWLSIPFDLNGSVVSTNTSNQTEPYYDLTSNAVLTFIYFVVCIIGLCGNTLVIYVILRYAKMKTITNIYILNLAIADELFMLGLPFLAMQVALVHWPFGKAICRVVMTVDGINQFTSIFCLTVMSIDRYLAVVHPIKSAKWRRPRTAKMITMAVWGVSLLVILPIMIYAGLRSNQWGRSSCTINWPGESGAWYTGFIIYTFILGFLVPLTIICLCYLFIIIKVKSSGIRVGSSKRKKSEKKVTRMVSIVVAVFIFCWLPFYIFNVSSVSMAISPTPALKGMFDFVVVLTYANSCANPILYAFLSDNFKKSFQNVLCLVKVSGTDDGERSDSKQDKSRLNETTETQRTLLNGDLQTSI
# [4] = target: Somatostatin receptor type 1 (Homo sapiens, UniProt P30872); assay: Inhibition of [Leu8,D-Trp22,125I-Tyr25]SRIF-28 binding to human somatostatin receptor type 1
# Sequence of Somatostatin receptor type 1 (P30872 whole entry): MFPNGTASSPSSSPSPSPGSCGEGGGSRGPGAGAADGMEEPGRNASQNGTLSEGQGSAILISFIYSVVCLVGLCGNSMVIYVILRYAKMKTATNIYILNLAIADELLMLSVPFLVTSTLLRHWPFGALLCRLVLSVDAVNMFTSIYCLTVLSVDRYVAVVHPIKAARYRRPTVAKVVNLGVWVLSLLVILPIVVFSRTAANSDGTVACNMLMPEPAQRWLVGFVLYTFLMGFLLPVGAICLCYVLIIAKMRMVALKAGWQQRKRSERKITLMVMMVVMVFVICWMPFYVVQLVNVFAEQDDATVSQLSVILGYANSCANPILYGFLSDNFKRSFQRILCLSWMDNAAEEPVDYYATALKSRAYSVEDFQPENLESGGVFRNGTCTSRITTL
# [5] = target: Somatostatin receptor type 3 (Homo sapiens, UniProt P32745); assay: Inhibition of [Leu8,D-Trp22,125I-Tyr25]SRIF-28 binding to human somatostatin receptor type 3
# Sequence of Somatostatin receptor type 3 (P32745 whole entry): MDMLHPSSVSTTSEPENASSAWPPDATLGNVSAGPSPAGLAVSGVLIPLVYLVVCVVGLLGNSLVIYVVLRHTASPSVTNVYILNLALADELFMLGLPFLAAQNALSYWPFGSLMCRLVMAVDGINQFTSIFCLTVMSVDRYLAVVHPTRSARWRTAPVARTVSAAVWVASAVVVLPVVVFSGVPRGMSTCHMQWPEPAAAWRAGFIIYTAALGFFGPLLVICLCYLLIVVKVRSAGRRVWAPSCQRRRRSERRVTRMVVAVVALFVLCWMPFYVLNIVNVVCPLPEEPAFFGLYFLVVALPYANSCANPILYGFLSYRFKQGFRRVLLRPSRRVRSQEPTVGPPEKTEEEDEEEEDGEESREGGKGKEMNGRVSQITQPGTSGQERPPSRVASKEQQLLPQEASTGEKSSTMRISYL
IC50 [1],IC50 [2],IC50 [3],IC50 [4],IC50 [5],SMILES
> 1 µM,> 1 µM,> 1 µM,0.151 µM,> 1 µM,CC(C)NCc1ccc(C[C@@H]2NC(=O)[C@@H](Cc3c[nH]c4ccccc34)NC(=O)[C@H](Cc3ccccc3)NC(=O)[C@H](Cc3ccccc3)NC(=O)[C@H](CCCCN)NC(=O)[C@@H](N)CSSC[C@@H](C(=O)O)N(C)C(=O)[C@H](CO)NC(=O)[C@H]([C@@H](C)O)NC(=O)[C@H](Cc3ccccc3)NC(=O)[C@H]([C@@H](C)O)NC2=O)cc1
> 1 µM,> 1 µM,> 1 µM,0.325 µM,> 1 µM,CC(C)NCc1ccc(C[C@@H]2NC(=O)[C@@H](Cc3ccc4ccccc4c3)N(C)C(=O)[C@H](Cc3ccccc3)NC(=O)[C@H](Cc3ccccc3)NC(=O)[C@H](CCCCN)NC(=O)[C@@H](N)CSSC[C@@H](C(=O)O)NC(=O)[C@H](CO)NC(=O)[C@H]([C@@H](C)O)NC(=O)[C@H](Cc3ccccc3)NC(=O)[C@H]([C@@H](C)O)NC2=O)cc1
> 1 µM,> 1 µM,> 1 µM,0.535 µM,> 1 µM,CC(C)NCc1ccc(C[C@@H]2NC(=O)[C@@H](Cc3ccc4ccccc4c3)NC(=O)[C@H](Cc3ccccc3)NC(=O)[C@H](Cc3ccccc3)NC(=O)[C@H](CCCCN)N(C)C(=O)[C@@H](N)CSSC[C@@H](C(=O)O)NC(=O)[C@H](CO)NC(=O)[C@H]([C@@H](C)O)NC(=O)[C@H](Cc3ccccc3)NC(=O)[C@H]([C@@H](C)O)NC2=O)cc1
> 1 µM,> 1 µM,> 1 µM,> 1 µM,> 1 µM,CC(C)NCc1ccc(C[C@@H]2NC(=O)[C@@H](Cc3ccc4ccccc4c3)NC(=O)[C@H](Cc3ccccc3)N(C)C(=O)[C@H](Cc3ccccc3)NC(=O)[C@H](CCCCN)NC(=O)[C@@H](N)CSSC[C@@H](C(=O)O)NC(=O)[C@H](CO)NC(=O)[C@H]([C@@H](C)O)NC(=O)[C@H](Cc3ccccc3)NC(=O)[C@H]([C@@H](C)O)NC2=O)cc1
> 1 µM,0.435 µM,> 1 µM,0.0067 µM,0.536 µM,CC(C)NCc1ccc(C[C@@H]2NC(=O)[C@H](N(C)C(=O)c3ccc4ccccc4c3)NC(=O)[C@H](Cc3ccccc3)NC(=O)[C@H](Cc3ccccc3)NC(=O)[C@H](CCCCN)NC(=O)[C@@H](N)CSSC[C@@H](C(=O)O)NC(=O)[C@H](CO)NC(=O)[C@H]([C@@H](C)O)NC(=O)[C@H](Cc3ccc(O)c(I)c3)NC(=O)[C@H]([C@@H](C)O)NC2=O)cc1
> 1 µM,> 1 µM,> 1 µM,0.144 µM,0.62 µM,CC(C)NCc1ccc(C[C@@H]2NC(=O)[C@@H](Cc3ccc4ccccc4c3)NC(=O)[C@H](Cc3ccccc3)NC(=O)[C@H](Cc3ccccc3)NC(=O)[C@H](CCCCN)NC(=O)[C@@H](N)CSSC[C@@H](C(=O)N[C@@H](CCCCN)C(=O)N[C@@H](CCCCN)C(=O)N[C@@H](CCCCN)C(=O)O)N(C)C(=O)[C@H](CO)NC(=O)[C@H]([C@@H](C)O)NC(=O)[C@H](Cc3ccccc3)NC(=O)[C@H]([C@@H](C)O)NC2=O)cc1
> 1 µM,> 1 µM,> 1 µM,> 1 µM,> 1 µM,CC(C)NCc1ccc(C[C@@H]2NC(=O)[C@@H](Cc3ccc4ccccc4c3)NC(=O)[C@H](Cc3ccccc3)NC(=O)[C@H](Cc3ccccc3)N(C)C(=O)[C@H](CCCCN)NC(=O)[C@@H](N)CSSC[C@@H](C(=O)O)NC(=O)[C@H](CO)NC(=O)[C@H]([C@@H](C)O)NC(=O)[C@H](Cc3ccccc3)NC(=O)[C@H]([C@@H](C)O)NC2=O)cc1
> 1 µM,> 1 µM,> 1 µM,0.071 µM,> 1 µM,CC(C)NCc1ccc(C[C@@H]2NC(=O)[C@@H](Cc3ccc4ccccc4c3)NC(=O)[C@H](Cc3ccccc3)NC(=O)[C@H](Cc3ccccc3)NC(=O)[C@H](CCCCN)NC(=O)[C@@H](N)CSSC[C@@H](C(=O)O)NC(=O)[C@H](CO)N(C)C(=O)[C@H]([C@@H](C)O)NC(=O)[C@H](Cc3ccccc3)NC(=O)[C@H]([C@@H](C)O)NC2=O)cc1
> 1 µM,> 1 µM,> 1 µM,> 1 µM,> 1 µM,CC(C)NCc1ccc(C[C@@H]2NC(=O)[C@@H](Cc3ccc4ccccc4c3)NC(=O)[C@H](Cc3ccccc3)NC(=O)[C@H](Cc3ccccc3)NC(=O)[C@H](CCCCN)NC(=O)[C@@H](N)CSSC[C@@H](C(=O)O)NC(=O)[C@H](CO)NC(=O)[C@H]([C@@H](C)O)NC(=O)[C@H](Cc3ccccc3)NC(=O)[C@H]([C@@H](C)O)N(C)C2=O)cc1
> 1 µM,> 1 µM,> 1 µM,0.014 µM,> 1 µM,CN[C@H]1CSSC[C@@H](C(=O)O)NC(=O)[C@H](CO)NC(=O)[C@H]([C@@H](C)O)NC(=O)[C@H](Cc2ccccc2)NC(=O)[C@H]([C@@H](C)O)NC(=O)[C@H](Cc2ccc(CNC(C)C)cc2)NC(=O)[C@@H](Cc2c[nH]c3ccccc23)NC(=O)[C@H](Cc2ccccc2)NC(=O)[C@H](Cc2ccccc2)NC(=O)[C@H](CCCCN)NC1=O
> 1 µM,0.562 µM,> 1 µM,0.0033 µM,> 1 µM,CC(C)NCc1ccc(C[C@@H]2NC(=O)[C@H](N(C)C(=O)c3ccc4ccccc4c3)NC(=O)[C@H](Cc3ccccc3)NC(=O)[C@H](Cc3ccccc3)NC(=O)[C@H](CCCCN)NC(=O)[C@@H](N)CSSC[C@@H](C(=O)O)NC(=O)[C@H](CO)NC(=O)[C@H]([C@@H](C)O)NC(=O)[C@H](Cc3ccc(O)cc3)NC(=O)[C@H]([C@@H](C)O)NC2=O)cc1
–,0.245 µM,> 1 µM,0.016 µM,–,CC(C)NCc1ccc(C[C@H]2C(=O)N[C@@H]([C@@H](C)O)C(=O)N[C@@H](Cc3ccccc3)C(=O)N[C@@H]([C@@H](C)O)C(=O)N[C@@H](CO)C(=O)N[C@H](C(=O)O)CSSC[C@H](NC(=O)[C@@H](N)Cc3ccc(O)cc3)C(=O)N[C@@H](CCCCN)C(=O)N[C@@H](Cc3ccccc3)C(=O)N[C@@H](Cc3ccccc3)C(=O)N[C@H](Cc3c[nH]c4ccccc34)C(=O)N2C)cc1 (H-YCKFF[dW][NMePhe(4-CH2NHiPr)]TFTSC-OH; disulfide 2-12)
> 1 µM,> 1 µM,> 1 µM,0.075 µM,> 1 µM,CC(C)NCc1ccc(C[C@@H]2NC(=O)[C@@H](Cc3c[nH]c4ccccc34)NC(=O)[C@H](Cc3ccccc3)NC(=O)[C@H](Cc3ccccc3)NC(=O)[C@H](CCCCN)NC(=O)[C@@H](N)CSSC[C@@H](C(=O)O)NC(=O)[C@H](CO)NC(=O)[C@H]([C@@H](C)O)N(C)C(=O)[C@H](Cc3ccccc3)NC(=O)[C@H]([C@@H](C)O)NC2=O)cc1
> 1 µM,> 1 µM,> 1 µM,0.035 µM,> 1 µM,CC(C)NCc1ccc(C[C@@H]2NC(=O)[C@@H](Cc3c[nH]c4ccccc34)NC(=O)[C@H](Cc3ccccc3)NC(=O)[C@H](Cc3ccccc3)NC(=O)[C@H](CCCCN)NC(=O)[C@@H](N)CSSC[C@@H](C(=O)N[C@@H](CCCCN)C(=O)O)N(C)C(=O)[C@H](CO)NC(=O)[C@H]([C@@H](C)O)NC(=O)[C@H](Cc3ccccc3)NC(=O)[C@H]([C@@H](C)O)NC2=O)cc1
–,> 1 µM,–,> 1 µM,0.9 µM,CC(C)NCc1ccc(C[C@@H]2NC(=O)[C@@H](N(C)C(=O)c3ccc4ccccc4c3)NC(=O)[C@H](Cc3ccccc3)NC(=O)[C@H](Cc3ccccc3)NC(=O)[C@H](CCCCN)NC(=O)[C@@H](N)CSSC[C@@H](C(=O)O)NC(=O)[C@H](CO)NC(=O)[C@H]([C@@H](C)O)NC(=O)[C@H](Cc3ccc(O)cc3)NC(=O)[C@H]([C@@H](C)O)NC2=O)cc1
> 1 µM,0.226 µM,> 1 µM,0.01 µM,1.03 µM,CC(C)NCc1ccc(C[C@H]2C(=O)N[C@@H]([C@@H](C)O)C(=O)N[C@@H](Cc3ccccc3)C(=O)N[C@@H]([C@@H](C)O)C(=O)N[C@@H](CO)C(=O)N[C@H](C(=O)O)CSSC[C@H](N)C(=O)N[C@@H](CCCCN)C(=O)N[C@@H](Cc3ccccc3)C(=O)N[C@@H](Cc3ccccc3)C(=O)N[C@H](Cc3c[nH]c4ccccc34)C(=O)N2C)cc1 (H-CKFF[dW][NMePhe(4-CH2NHiPr)]TFTSC-OH; disulfide 1-11)
> 1 µM,> 1 µM,> 1 µM,0.583 µM,> 1 µM,CC(C)NCc1ccc(C[C@@H]2NC(=O)[C@@H](Cc3ccc4ccccc4c3)NC(=O)[C@H](Cc3ccccc3)NC(=O)[C@H](Cc3ccccc3)NC(=O)[C@H](CCCCN)NC(=O)[C@@H](N)CSSC[C@@H](C(=O)O)NC(=O)[C@H](CO)NC(=O)[C@H]([C@@H](C)O)NC(=O)[C@H](Cc3ccccc3)N(C)C(=O)[C@H]([C@@H](C)O)NC2=O)cc1
0.803 µM,> 1 µM,> 1 µM,0.03 µM,> 1 µM,CC(C)NCc1ccc(C[C@@H]2NC(=O)[C@@H](Cc3c[nH]c4ccccc34)NC(=O)[C@H](Cc3ccccc3)NC(=O)[C@H](Cc3ccccc3)NC(=O)[C@H](CCCCN)NC(=O)[C@@H](N)CSSC[C@@H](C(=O)N[C@@H](CCCCN)C(=O)N[C@@H](CCCCN)C(=O)N[C@@H](CCCCN)C(=O)O)N(C)C(=O)[C@H](CO)NC(=O)[C@H]([C@@H](C)O)NC(=O)[C@H](Cc3ccccc3)NC(=O)[C@H]([C@@H](C)O)NC2=O)cc1

SMILES,IC50 [1],IC50 [2],IC50 [3],IC50 [4],IC50 [5]
CC(C)NCc1ccc(C[C@@H]2NC(=O)[C@H](Cc3c[nH]c4ccccc34)NC(=O)[C@H](Cc3ccccc3)NC(=O)[C@H](Cc3ccccc3)NC(=O)[C@H](CCCCN)NC(=O)[C@@H](N)CSSC[C@@H](C(=O)O)NC(=O)[C@H](CO)NC(=O)[C@H]([C@@H](C)O)NC(=O)[C@H](Cc3ccc(O)cc3)NC(=O)[C@H]([C@@H](C)O)NC2=O)cc1 (H-CKFFW[Phe(4-CH2NHiPr)]TYTSC-OH; disulfide 1-11),> 1 µM,0.384 µM,> 1 µM,0.015 µM,> 1 µM
